Assays:
[1] = test system: Hela S3 cells; conditions: from JP 11180997; cited from earlier work
[2] = test system: 5637; assay: MTS tetrazolium cytotoxicity assay; assay type: cell-based; conditions: Homo sapiens, 72 h, read-out: Cytotoxic activity (IC50)
Text: (§1) The finality of these assays is to interrupt the growth of an “in vitro” tumour cell culture by means a continued exhibition of the cells to the sample to be testing. The following human cell lines were used:
(§2) Tetrazolium Assay MTS is based on metabolic reduction of MTS to solubilized formazan crystals by the metabolically active mitochondria of living cells. For this reason, the methodology includes counting of the cell lines based on viability staining to ensure that cell concentrations are corrected to allow for 100% living cells into each well in lieu of Coulter counting or estimated dilutions based on standard growth curves.
(§3) Medium containing drug was removed at the end of the treatment and culture plates rinsed one time with PBS. Afterward, cells were incubated in 200 μl of drug-free medium until 72 hours. After appropriate incubation time 25 μl of MTS+PMS solution was added to each microtiter well and incubated for 4 hours at 37° C. Plates were then removed from the incubator and placed on plate shaker for 5 minutes (covered for protection from light). Optical densities were read at 490 nm on spectrophotometer plate reader. Data was analyzed using Softmax.
(§4) Data is presented as IC50 potencies calculated from 3rd order polynomial regression curves using Microsoft Excel and then manually interpolated.

[3] = test system: 786-O; assay: MTS tetrazolium cytotoxicity assay; assay type: cell-based; conditions: Homo sapiens, 786-0, 72 h, read-out: Cytotoxic activity (IC50)
Text: as §1, §2, §3, §4

[4] = test system: A549; assay: MTS tetrazolium cytotoxicity assay; assay type: cell-based; conditions: Homo sapiens, A549, 72 h, read-out: Cytotoxic activity (IC50)
Text: as §1, §2, §3, §4

[5] = test system: BT-474; assay: MTS tetrazolium cytotoxicity assay; assay type: cell-based; conditions: Homo sapiens, BT-474, 72 h, read-out: Cytotoxic activity (IC50)
Text: as §1, §2, §3, §4

[6] = test system: CHSA; assay: MTS tetrazolium cytotoxicity assay; assay type: cell-based; conditions: Homo sapiens, 72 h, read-out: Cytotoxic activity (IC50)
Text: as §1, §2, §3, §4

[7] = test system: DU-145; assay: MTS tetrazolium cytotoxicity assay; assay type: cell-based; conditions: Homo sapiens, DU-145, 72 h, read-out: Cytotoxic activity (IC50)
Text: as §1, §2, §3, §4

[8] = test system: FADU; assay: MTS tetrazolium cytotoxicity assay; assay type: cell-based; conditions: Homo sapiens, 72 h, read-out: Cytotoxic activity (IC50)
Text: as §1, §2, §3, §4

[9] = test system: H9; assay: MTS tetrazolium cytotoxicity assay; assay type: cell-based; conditions: Homo sapiens, H9, 72 h, read-out: Cytotoxic activity (IC50)
Text: as §1, §2, §3, §4

[10] = test system: HL-60; assay: MTS tetrazolium cytotoxicity assay; assay type: cell-based; conditions: Homo sapiens, HL-60, 72 h, read-out: Cytotoxic activity (IC50)
Text: as §1, §2, §3, §4

[11] = test system: HT-29; assay: MTS tetrazolium cytotoxicity assay; assay type: cell-based; conditions: Homo sapiens, HT-29, 72 h, read-out: Cytotoxic activity (IC50)
Text: as §1, §2, §3, §4

[12] = test system: Hs746t; assay: MTS tetrazolium cytotoxicity assay; assay type: cell-based; conditions: Homo sapiens, 72 h, read-out: Cytotoxic activity (IC50)
Text: as §1, §2, §3, §4

[13] = test system: K562; assay: MTS tetrazolium cytotoxicity assay; assay type: cell-based; conditions: Homo sapiens, K562, 72 h, read-out: Cytotoxic activity (IC50)
Text: as §1, §2, §3, §4

[14] = test system: LNCAP; assay: MTS tetrazolium cytotoxicity assay; assay type: cell-based; conditions: Homo sapiens, 72 h, read-out: Cytotoxic activity (IC50)
Text: as §1, §2, §3, §4

[15] = test system: MC116; assay: MTS tetrazolium cytotoxicity assay; assay type: cell-based; conditions: Homo sapiens, MC116, 72 h, read-out: Cytotoxic activity (IC50)
Text: as §1, §2, §3, §4

[16] = test system: MX-1; assay: MTS tetrazolium cytotoxicity assay; assay type: cell-based; conditions: Homo sapiens, MX1, 72 h, read-out: Cytotoxic activity (IC50)
Text: as §1, §2, §3, §4

[17] = test system: Mel-28; assay: MTS tetrazolium cytotoxicity assay; assay type: cell-based; conditions: Homo sapiens, SK-MEL-28, 72 h, read-out: Cytotoxic activity (IC50)
Text: as §1, §2, §3, §4

[18] = test system: NCI-H187; assay: MTS tetrazolium cytotoxicity assay; assay type: cell-based; conditions: Homo sapiens, NCI-H187, 72 h, read-out: Cytotoxic activity (IC50)
Text: as §1, §2, §3, §4

[19] = test system: OSA-FH; assay: MTS tetrazolium cytotoxicity assay; assay type: cell-based; conditions: Homo sapiens, 72 h, read-out: Cytotoxic activity (IC50)
Text: as §1, §2, §3, §4

[20] = test system: PANC-1; assay: MTS tetrazolium cytotoxicity assay; assay type: cell-based; conditions: Homo sapiens, PANC-1, 72 h, read-out: Cytotoxic activity (IC50)
Text: as §1, §2, §3, §4

[21] = test system: PC-3; assay: MTS tetrazolium cytotoxicity assay; assay type: cell-based; conditions: Homo sapiens, PC-3, 72 h, read-out: Cytotoxic activity (IC50)
Text: as §1, §2, §3, §4

[22] = test system: SK-HEP-1; assay: MTS tetrazolium cytotoxicity assay; assay type: cell-based; conditions: Homo sapiens, SK-HEP1, 72 h, read-out: Cytotoxic activity (IC50)
Text: as §1, §2, §3, §4

[23] = test system: SK-N-MC; assay: MTS tetrazolium cytotoxicity assay; assay type: cell-based; conditions: Homo sapiens, 72 h, read-out: Cytotoxic activity (IC50)
Text: as §1, §2, §3, §4

[24] = test system: SK-OV-3; assay: MTS tetrazolium cytotoxicity assay; assay type: cell-based; conditions: Homo sapiens, SK-OV-3, 72 h, read-out: Cytotoxic activity (IC50)
Text: as §1, §2, §3, §4

[25] = test system: SW 694; assay: MTS tetrazolium cytotoxicity assay; assay type: cell-based; conditions: Homo sapiens, 72 h, read-out: Cytotoxic activity (IC50)
Text: as §1, §2, §3, §4

[26] = test system: SW-579; assay: MTS tetrazolium cytotoxicity assay; assay type: cell-based; conditions: Homo sapiens, SW579, 72 h, read-out: Cytotoxic activity (IC50)
Text: as §1, §2, §3, §4

[27] = test system: TT; assay: MTS tetrazolium cytotoxicity assay; assay type: cell-based; conditions: Homo sapiens, 72 h, read-out: Cytotoxic activity (IC50)
Text: as §1, §2, §3, §4

[28] = test system: Y-79; assay: MTS tetrazolium cytotoxicity assay; assay type: cell-based; conditions: Homo sapiens, Y79, 72 h, read-out: Cytotoxic activity (IC50)
Text: as §1, §2, §3, §4

[29] = test system: human breast tumour (MX-1 cell line) xenografts; assay: Human breast tumour xenograft, net tumour growth; assay type: in vivo, female athymic mice; design: key to Net Tumour Growth ± S.E.M.: †: High mortality prevented meaningful statistical analysis; conditions: for Net Tumour Growth ± S.E.M.: MX-1 xenograft
Text: (§5) At different times, three human tumour cell lines MX-1 (breast), HT-29 (colon), and LX-1 (non-small cell lung), respectively, were implanted subcutaneously into separate groups of recipient female athymic mice as a small seedling of approximately 2-3 mm^3. Each tumour type was then allowed to grow inside the animal to reach a group mean size of 100±15 mm^3, at which time tumour-bearing mice were randomized into groups (Staging Day). The Staging Day also coincided with Day 0 for drug dosing.
(§6) The test article was administered as a single intravenous (iv) bolus injection (i.e., QD×1) on the Staging Day (Day 0).
(§7) Tumour burden was determined for all animals throughout the study using a caliper, and the frequency was at least twice per week.
(§8) Protocols and criteria for drug activity were derived from those established by the National Cancer Institute for tumour systems similar to those used in these studies (NIH Publication No. 84-2635, In vivo cancer models 1976-1982). Statistical analysis of tumour volumes for each group of drug treated animals was performed according to the Mann Whitney nonparametric test based on comparisons to the vehicle control cohort within the same experiment.
(§9) Tumour lengths (L) and widths (W) were measured in millimeters (mm) using calipers, recorded, and tumour volume was calculated by the formula: Volume (mm^3)=L×W^2×0.5. Individual values were determined for each tumour-bearing athymic- mouse and specified day of measurement (day D). On the tumour Staging Day (Day 0), the tumour volume of a treated animal (T01) was subtracted from the corresponding tumour volume on each observation day (TD1). This provided the change (Δ) in tumour volume for the said treated athymic mouse (ΔT1=TD1−T01). The change in tumour volumes for each member of the control cohort (ΔC) was calculated in a similar fashion as above.
(§10) At randomization (Day 0) the average volume of the tumour mass was 100±15 mm^3 and the “net tumour growth” is really a difference between the size of the tumour on Day X and that on Day 0. The parameter S.E.M. is commonly used in statistics and stands for standard error of the mean in a distribution of N (size) experimental values.

[30] = test system: human colon tumour (HT-29 cell line) xenografts; assay: Human colon tumour xenograft, net tumour growth; assay type: in vivo, female athymic mice; conditions: for Net Tumour Growth ± S.E.M.: HT-29 xenograft, single iv dose 0.5 mg/kg
Text: as §5, §6, §7, §8, §9, §10

[31] = test system: human non-small cell lung tumour (LX-1 cell line) xenografts; assay: Human non-small cell lung tumour xenograft, net tumour growth; assay type: in vivo, female athymic mice; conditions: for Net Tumour Growth ± S.E.M.: LX-1 xenograft
Text: as §5, §6, §7, §8, §9, §10

[32] = Maximum tolerated dose in mice; conditions: CD-1, mouse, in vivo
[33] = single iv dose 1.0 mg/kg, DAY 3
[34] = single iv dose 1.0 mg/kg, DAY 6
[35] = single iv dose 1.0 mg/kg, DAY 10
[36] = single iv dose 1.5 mg/kg, DAY 3
[37] = single iv dose 1.5 mg/kg, DAY 6
[38] = single iv dose 1.5 mg/kg, DAY 10

CCC(C)C1NC(=O)c2nc(oc2-c2ccccc2)-c2csc(n2)-c2coc(n2)-c2coc(n2)-c2coc(n2)CNC(=O)C(C(C)C)NC1=O (centres unmarked)
IC50 [1]: 0.014 µM

C=C1NC(=O)C(C(C)C)NC(=O)C(C(C)CC)NC(=O)c2nc(oc2-c2ccccc2)-c2coc(n2)-c2csc(n2)-c2coc(n2)-c2coc1n2 (centres unmarked) [IB-01211]
IC50 [2]: 0.339 µM | IC50 [3]: 0.692 µM | IC50 [4]: 0.918 µM | IC50 [5]: 0.537 µM | IC50 [6]: 0.353 µM | IC50 [7]: 0.48 µM | IC50 [8]: 0.664 µM | IC50 [9]: 0.184 µM | IC50 [10]: 0.141 µM | IC50 [11]: 0.817 µM | IC50 [12]: 0.692 µM | IC50 [13]: 0.636 µM | IC50 [14]: 0.65 µM | IC50 [15]: 3.39 µM | IC50 [16]: 0.862 µM | IC50 [17]: 0.508 µM | IC50 [18]: 0.0297 µM | IC50 [19]: 0.72 µM | IC50 [20]: 0.424 µM | IC50 [21]: 0.621 µM | IC50 [22]: 0.664 µM | IC50 [23]: 0.537 µM | IC50 [24]: 0.946 µM | IC50 [25]: 0.72 µM | IC50 [26]: 0.452 µM | IC50 [27]: 4.38 µM | IC50 [28]: 0.0932 µM | Net Tumour Growth ± S.E.M. [29, 33]: 5 ± 3 mm^3 | Net Tumour Growth ± S.E.M. [29, 34]: 113 ± 62 mm^3 | Net Tumour Growth ± S.E.M. [29, 35]: 450 ± 137 mm^3 | Net Tumour Growth ± S.E.M. [29, 36]: † | Net Tumour Growth ± S.E.M. [29, 37]: † | Net Tumour Growth ± S.E.M. [29, 38]: † | antitumour effect in vivo ([29]; breast tumour, dose of 0.29 MTD): trend to significance | Net Tumour Growth ± S.E.M. ([30]; DAY 1): 26 ± 11 mm^3 | Net Tumour Growth ± S.E.M. ([30]; DAY 4): 53 ± 28 mm^3 | Net Tumour Growth ± S.E.M. ([30]; DAY 8): 162 ± 34 mm^3 | antitumour effect in vivo ([30]; colon tumour, dose of 0.14 MTD): not against colon tumour | Net Tumour Growth ± S.E.M. [31, 33]: 68 ± 29 mm^3 | Net Tumour Growth ± S.E.M. [31, 34]: 234 ± 11 mm^3 | Net Tumour Growth ± S.E.M. [31, 35]: 561 ± 60 mm^3 | Net Tumour Growth ± S.E.M. [31, 36]: 11 ± 19 mm^3 | Net Tumour Growth ± S.E.M. [31, 37]: 121 ± 51 mm^3 | Net Tumour Growth ± S.E.M. [31, 38]: 309 ± 71 mm^3 | antitumour effect in vivo ([31]; human non-small cell lung tumour, dose of 0.43 MTD): significant antitumour effect | MTD [32]: 3.5 mg/kg

Source: patent US7446094B2, “Cytotoxic depsipeptides” (Instituto Biomar S.A., priority 2003, dated 2008)
